Measurements taken from patent US12064503B2, “High-potency vitamin C and sugar alcohol topical formulations” (ICB (an ABC), LLC, priority 2020, dated 2024).

Assays:
skin [1] = conditions: topical use of 4% HQ or 5% Vitamin C; cited from earlier work
[2] = Solubility in non-aqueous skin-compatible solvents; conditions: neat solvent
skin [3] = conditions: cream containing 10% MAP; cited from earlier work
skin [4] = conditions: topical; cited from earlier work
skin [5] = conditions: concentrations of 0.2%; clinical data from SEPPIC; cited from earlier work

O=C1O[C@H]([C@@H](O)CO)C(O)=C1O [AA, L-ascorbic acid]
improvement (skin [1]): 62.5%

CO[C@H]1CO[C@H]2[C@@H]1OC[C@H]2OC [Dimethyl isosorbide]
ability of the solvent to solubilize ascorbic acid [2]: very limited

Oc1ccc(O)cc1 [HQ, hydroquinone]
improvement (skin [1]): 93% | side-effects (skin [1]): 68.7%

O=C1O[C@H]([C@@H](O)CO)C([O-])=C1OP(=O)([O-])[O-].O=C1O[C@H]([C@@H](O)CO)C([O-])=C1OP(=O)([O-])[O-].[Mg+2].[Mg+2].[Mg+2] [MAP, magnesium ascorbyl phosphate]
brighten/lighten the appearance of the skin (skin [3]): effectively brighten/lighten

CC(C)(CO)[C@@H](O)C(=O)NCCCO [Panthenol]
concentration at which inhibition of transepidermal water loss is apparent (skin [4]): ≥ 1%

madecassoside
ability to reduce erythema (skin redness) (skin [5]): desirable ability to reduce erythema
